Assay results as given in US8883743B2, “Methods for treating obesity employing an SGLT2 inhibitor” (AstraZeneca AB, priority 2007, dated 2014).

How the values were obtained:
[1] = Chronic weight loss study in diet-induced obese (DIO) rats; type: in vivo, rat
Procedure: DIO rats were sorted into treatment groups based on body weight, total kilocalories consumed, and body composition (via echo MRI). […] To assess the importance of compensatory over-eating in drug-treated animals, a subgroup of rats that received 5 mg/kg of dapagliflozin was restricted to the food intake of the placebo group. Body weight and the weight of both diets were determined daily. Respiratory quotient data were obtained on days 2 and 15 of the study, echo MRI was obtained on day 22, and blood was collected for a fasting clinical chemistry tests on day 27.
Percent weight changes were calculated as […].
The weight loss study with Compound IIIA (0.1, 0.3, 1, and 3 mg/kg) was performed using the same methods as the Dapagliflozin study.

[2] = 12-week once-daily oral treatment of treatment naive type II diabetes mellitus patients (glucosuria, body weight, BMI); type: in vivo, human; settings: type II diabetic patients, each dose group, 12 weeks
Procedure: Treatment naive type II diabetes mellitus patients, n=389, with inadequate blood glycemic control and low mean glucosuria at baseline were given once-daily oral treatments with dapagliflozin (2.5, 5, 10, 20, or 50 mgs), metformin XR® (750 mg titrated to 1500 mgs), or placebo over 12-weeks.

[3] = Procedure: Patients with type 2 diabetes were treated with placebo, 5 mg dapagliflozin propylene glycol, 25 mg dapagliflozin propylene glycol, or 100 mg dapagliflozin propylene glycol.

Compound	weight loss ([1]; DIO rats, 0.1, 0.3, 1 and 3 mg/kg daily over 25 days (FIG. 5))	proportion of patients achieving a 5% weight reduction versus placebo [2]	glucosuric effects: loss of calories in the urine (glucose excretion/day) ([3]; healthy subjects, single doses 5, 20, 50 or 100 mg, indirect comparison versus GSK 869,682 (FIG. 1))	24-hour urine glucose excretion compared to placebo ([3]; subjects with type 2 diabetes, 5 mg, 25 mg and 100 mg, 14-day study (FIG. 2))	weight loss when compound-induced overeating was prevented (pair fed to vehicle group) ([1]; DIO rats, 5 mg/kg subgroup restricted to food intake of placebo group (FIG. 4))	weight loss versus vehicle ([1]; DIO rats, oral 0.5, 1 and 5 mpk daily over 25 days, p<0.05 (FIG. 4))
CCc1ccc(Cc2cc([C@@H]3O[C@H](CO)[C@@H](O)[C@H](O)[C@H]3O)ccc2Cl)cc1 [Compound IIIA, (2S,3R,4R,5S,6R)-2-(4-chloro-3-(4-ethylbenzyl)phenyl)-6-(hydroxymethyl)tetrahydro-2H-pyran-3,4,5-triol]	significant weight loss in diet-induced obese rats in a dose proportional manner					
CCOc1ccc(Cc2cc([C@@H]3O[C@H](CO)[C@@H](O)[C@H](O)[C@H]3O)ccc2Cl)cc1 [Dapagliflozin-PGS, dapagliflozin propylene glycol hydrate]		higher proportion	significant loss of calories in the urine	significantly higher urine glucose excretion	weight loss was greater	significant weight loss
